Reference: patent publication US8444858B2, “Control of development of biofilms in industrial process water” (A.Y. Laboratories Ltd., priority 2001, dated 2013)
Like-named read-outs stand apart in the source and are kept apart here.

Key:
biofilm = test: Pilot plant wastewater pipes, difference in Hazen-Williams coefficient treated vs control pipe; settings: for HW Diff. treated pipe - Control: single 3 h treatment on day 1 at 10 ppm as total chlorine
Protocol: Treated wastewater was pumped through several pipes of 10 m length and 4 inches inner diameter in a pilot plant. […] Pressure drop through each pipe was monitored on-line, and average HW coefficients were calculated.
The biofilm inhibiting substance in this example was produced as follows, using a small feeding system was built specifically for this trial. […] The concentration of the biofilm inhibiting substance pre-injection solution was ˜3600 ppm and the pH was 9.2-9.6. […]

H2O2-degrading enzymes = test system: H2O2-degrading enzymes
Protocol: (§1) The reaction pH was Maintained at 9.8-10.0. The Production process was controlled to ensure synchronous metering of the two chemicals, continuous mixing at the predetermined molar ratio and reproducible production of a stable biofilm inhibiting substance stock solution for the duration of the trial and longer. […] After 850 minutes the dosing rate was reduced to 85 g/ton expressed as total Cl2 by feeding the biofilm inhibiting substance semi-continuously. Various parameters were monitored during start-up of the trial: Residual biofilm inhibiting substance was measured (using a Hach pocket colorimeter, total Cl2, based on the DPD method adapted from Standard Methods for Examination of Waste and Waste Water). Residual hydrogen peroxide was measured using either LASA 20 with the LCW 085 method, based on the method of Jander/Blasius, Lehrbuch der Analytischen and Praparative Anorganischen Chemie, as described in the Handbook of Photometrical Operation Analysis by Dr. Lange for the LASA 20, October 1997 (in cases of high concentration), or Merck Test Strips (0.5-25 ppm). When necessary, samples were diluted with DI water.
(§2) The activity of H2O2-degrading enzymes in the process water was measured according to the following procedure: a commercial solution of H2O2 was diluted with DI water to a final concentration of 100 g/l water (10%). One ml of the diluted H2O2 solution was added to 9 ml of a sample taken from the treated de-inking process water to form a final feed rate of 10 g/l H2O2. The combined sample was incubated at room temperature for 15 minutes, at which time residual H2O2 was measured. Hydrogen peroxide diluted in DI water served as a control. […] Adenosine triphosphate (ATP) measurements in Table 6 are based on the following process: during the change from ATP to Adenosine monophosphate (AMP) in the presence of luciferin and luciferase, a defined quantity of light is emitted per ATP molecule. This emitted light is measured by a photometer. The results are given in relative terms and are thus relative and not absolute (RLU=relative light unit). The values can be correlated with microbial activity in the sense that for high viable counts, a high ATP measurement is obtained, and vice versa.

[1] = test system: planktonic microorganisms
Protocol: as §1, §2

[2] = De-inking plant field trial, residual H2O2, residual biofilm inhibiting substance and H2O2 consumption
Protocol: A de-inking system had been using 7-10 kg H2O2 per ton of waste paper.
as §1, with “Residual hydrogen peroxide was measured using either LASA 20 with the LCW 085 method, based on the method of Jander/Blasius, Lehrbuch der Analytischen and Praparative Anorganischen Chemie, as described in the Handbook of Photometrical Operation Analysis by Dr. Lange for the LASA 20, October 1997 (in cases of high concentration), or Merck Test Strips (0.5-25 ppm).” left out

[3] = time 100 min, continuous feed 170 g/ton as total Cl2
[4] = time 240 min, continuous feed 170 g/ton as total Cl2
[5] = time 850 min, continuous feed 170 g/ton as total Cl2
[6] = time 1500 min, semi-continuous feed 85 g/ton as total Cl2 since 850 min

bromide activated chloramine [Fuzzicide BAC]
HW Diff. treated pipe - Control (biofilm; day 1): 14.3 | HW Difference, Fuzzicide BAC - Control (biofilm; day 1 of trial (treatment day), 10 ppm as total chlorine for 3 h three times a week): 10.12 | HW Diff. treated pipe - Control (biofilm; day 2): 13.7 | HW Difference, Fuzzicide BAC - Control (biofilm; day 2 of trial, 10 ppm as total chlorine for 3 h three times a week): 11.25 | HW Diff. treated pipe - Control (biofilm; day 3): 12.8 | HW Difference, Fuzzicide BAC - Control (biofilm; day 3 of trial, 10 ppm as total chlorine for 3 h three times a week): 11.62 | HW Diff. treated pipe - Control (biofilm; day 4): 16.5 | HW Difference, Fuzzicide BAC - Control (biofilm; day 4 of trial, 10 ppm as total chlorine for 3 h three times a week): 13.04 | HW Diff. treated pipe - Control (biofilm; day 5): 16.0 | HW Difference, Fuzzicide BAC - Control (biofilm; day 5 of trial (treatment day), 10 ppm as total chlorine for 3 h three times a week): 12.35 | HW Diff. treated pipe - Control (biofilm; day 6): 16.55 | HW Difference, Fuzzicide BAC - Control (biofilm; day 6 of trial, 10 ppm as total chlorine for 3 h three times a week): 13.76 | HW Diff. treated pipe - Control (biofilm; day 7): 15.8 | HW Difference, Fuzzicide BAC - Control (biofilm; day 7 of trial, 10 ppm as total chlorine for 3 h three times a week): 15.13 | HW Diff. treated pipe - Control (biofilm; day 8): 14.3 | HW Diff. treated pipe - Control (biofilm; day 9): 16.9 | HW Diff. treated pipe - Control (biofilm; day 10): 15.3 | HW Diff. treated pipe - Control (biofilm; day 11): 16.0 | HW Diff. treated pipe - Control (biofilm; day 12): 18.1 | HW Diff. treated pipe - Control (biofilm; day 13): 17.2 | HW Diff. treated pipe - Control (biofilm; day 14): 15.0 | HW Diff. treated pipe - Control (biofilm; day 15): 11.9 | HW Diff. treated pipe - Control (biofilm; day 16): 9.1 | HW Diff. treated pipe - Control (biofilm; day 17): 7.3 | HW Diff. treated pipe - Control (biofilm; day 18): 7.2 | HW Difference, Fuzzicide BAC - Control (biofilm; day 26 of trial, between days 7 and 26 the biocide was improperly prepared, rendering it ineffective): 6.11 | HW Difference, Fuzzicide BAC - Control (biofilm; day 27 of trial (treatment day), 10 ppm as total chlorine for 3 h three times a week): 6.67 | HW Difference, Fuzzicide BAC - Control (biofilm; day 28 of trial, 10 ppm as total chlorine for 3 h three times a week): 7.13 | HW Difference, Fuzzicide BAC - Control (biofilm; day 29 of trial (treatment day), 10 ppm as total chlorine for 3 h three times a week): 8.75 | HW Difference, Fuzzicide BAC - Control (biofilm; day 30 of trial, 10 ppm as total chlorine for 3 h three times a week): 8.93 | HW Difference, Fuzzicide BAC - Control (biofilm; day 31 of trial, 10 ppm as total chlorine for 3 h three times a week): 8.93 | HW Difference, Fuzzicide BAC - Control (biofilm; day 32 of trial, 10 ppm as total chlorine for 3 h three times a week): 9.02 | HW Difference, Fuzzicide BAC - Control (biofilm; day 33 of trial (treatment day), 10 ppm as total chlorine for 3 h three times a week): 8.89 | HW Difference, Fuzzicide BAC - Control (biofilm; day 34 of trial, 10 ppm as total chlorine for 3 h three times a week): 8.93 | HW Difference, Fuzzicide BAC - Control (biofilm; day 35 of trial, 10 ppm as total chlorine for 3 h three times a week): 9.12 | HW Difference, Fuzzicide BAC - Control (biofilm; day 36 of trial (treatment day), 10 ppm as total chlorine for 3 h three times a week): 10.31 | HW Difference, Fuzzicide BAC - Control (biofilm; day 37 of trial, 10 ppm as total chlorine for 3 h three times a week): 9.96 | HW Difference, Fuzzicide BAC - Control (biofilm; day 38 of trial, 10 ppm as total chlorine for 3 h three times a week): 13.97 | Reduction in Catalase Activity, as % of initial H2O2 concentration (H2O2-degrading enzymes; time 0 min (start of dosing, baseline), 10 g/l H2O2 added to sample, 15 min): 37.6% | Reduction in Catalase Activity, as % of initial H2O2 concentration (H2O2-degrading enzymes; [3]): 17.8% | Reduction in Catalase Activity, as % of initial H2O2 concentration (H2O2-degrading enzymes; [4]): 54.7% | Reduction in Catalase Activity, as % of initial H2O2 concentration (H2O2-degrading enzymes; [5]): 92% | Reduction in Catalase Activity, as % of initial H2O2 concentration (H2O2-degrading enzymes; [6]): 135.1% | ATP (RLU) ([1]; time 0 min (start of dosing, baseline)): 132276 RLU | ATP (RLU) [1, 3]: 6340 RLU | ATP (RLU) [1, 4]: 2861 RLU | ATP (RLU) [1, 5]: 535 RLU | ATP (RLU) [1, 6]: 3568 RLU | H2O2 feed rate maintaining de-inking bleaching targets ([2]; after a few more days of semi-continuous dosing): ~2.2 kg/ton | feed rate of H2O2 needed in order to maintain bleaching set point ([2]; after about 48 hours of semi-continuous dosing, before trial 7-10 kg H2O2 per ton of waste paper): ~4 kg/ton
